Where a name gives a salt, the structure may show the parent alone.

For one experiment, the target named is hNav1.7 (Homo sapiens (Human), UniProt Q15858). The experiment is described as follows: Tritiated sulfonamide competitive binding to membranes from cells expressing hNav1.7 and the β1 subunit.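 Further: Filter-bound radioactivity counted by liquid scintillation, nonspecific binding defined with excess unlabelled ligand, IC50 fitted to percent inhibition of specific binding.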
Sequence of hNav1.7 (Q15858 other isoform, or with tags, fused parts or gaps): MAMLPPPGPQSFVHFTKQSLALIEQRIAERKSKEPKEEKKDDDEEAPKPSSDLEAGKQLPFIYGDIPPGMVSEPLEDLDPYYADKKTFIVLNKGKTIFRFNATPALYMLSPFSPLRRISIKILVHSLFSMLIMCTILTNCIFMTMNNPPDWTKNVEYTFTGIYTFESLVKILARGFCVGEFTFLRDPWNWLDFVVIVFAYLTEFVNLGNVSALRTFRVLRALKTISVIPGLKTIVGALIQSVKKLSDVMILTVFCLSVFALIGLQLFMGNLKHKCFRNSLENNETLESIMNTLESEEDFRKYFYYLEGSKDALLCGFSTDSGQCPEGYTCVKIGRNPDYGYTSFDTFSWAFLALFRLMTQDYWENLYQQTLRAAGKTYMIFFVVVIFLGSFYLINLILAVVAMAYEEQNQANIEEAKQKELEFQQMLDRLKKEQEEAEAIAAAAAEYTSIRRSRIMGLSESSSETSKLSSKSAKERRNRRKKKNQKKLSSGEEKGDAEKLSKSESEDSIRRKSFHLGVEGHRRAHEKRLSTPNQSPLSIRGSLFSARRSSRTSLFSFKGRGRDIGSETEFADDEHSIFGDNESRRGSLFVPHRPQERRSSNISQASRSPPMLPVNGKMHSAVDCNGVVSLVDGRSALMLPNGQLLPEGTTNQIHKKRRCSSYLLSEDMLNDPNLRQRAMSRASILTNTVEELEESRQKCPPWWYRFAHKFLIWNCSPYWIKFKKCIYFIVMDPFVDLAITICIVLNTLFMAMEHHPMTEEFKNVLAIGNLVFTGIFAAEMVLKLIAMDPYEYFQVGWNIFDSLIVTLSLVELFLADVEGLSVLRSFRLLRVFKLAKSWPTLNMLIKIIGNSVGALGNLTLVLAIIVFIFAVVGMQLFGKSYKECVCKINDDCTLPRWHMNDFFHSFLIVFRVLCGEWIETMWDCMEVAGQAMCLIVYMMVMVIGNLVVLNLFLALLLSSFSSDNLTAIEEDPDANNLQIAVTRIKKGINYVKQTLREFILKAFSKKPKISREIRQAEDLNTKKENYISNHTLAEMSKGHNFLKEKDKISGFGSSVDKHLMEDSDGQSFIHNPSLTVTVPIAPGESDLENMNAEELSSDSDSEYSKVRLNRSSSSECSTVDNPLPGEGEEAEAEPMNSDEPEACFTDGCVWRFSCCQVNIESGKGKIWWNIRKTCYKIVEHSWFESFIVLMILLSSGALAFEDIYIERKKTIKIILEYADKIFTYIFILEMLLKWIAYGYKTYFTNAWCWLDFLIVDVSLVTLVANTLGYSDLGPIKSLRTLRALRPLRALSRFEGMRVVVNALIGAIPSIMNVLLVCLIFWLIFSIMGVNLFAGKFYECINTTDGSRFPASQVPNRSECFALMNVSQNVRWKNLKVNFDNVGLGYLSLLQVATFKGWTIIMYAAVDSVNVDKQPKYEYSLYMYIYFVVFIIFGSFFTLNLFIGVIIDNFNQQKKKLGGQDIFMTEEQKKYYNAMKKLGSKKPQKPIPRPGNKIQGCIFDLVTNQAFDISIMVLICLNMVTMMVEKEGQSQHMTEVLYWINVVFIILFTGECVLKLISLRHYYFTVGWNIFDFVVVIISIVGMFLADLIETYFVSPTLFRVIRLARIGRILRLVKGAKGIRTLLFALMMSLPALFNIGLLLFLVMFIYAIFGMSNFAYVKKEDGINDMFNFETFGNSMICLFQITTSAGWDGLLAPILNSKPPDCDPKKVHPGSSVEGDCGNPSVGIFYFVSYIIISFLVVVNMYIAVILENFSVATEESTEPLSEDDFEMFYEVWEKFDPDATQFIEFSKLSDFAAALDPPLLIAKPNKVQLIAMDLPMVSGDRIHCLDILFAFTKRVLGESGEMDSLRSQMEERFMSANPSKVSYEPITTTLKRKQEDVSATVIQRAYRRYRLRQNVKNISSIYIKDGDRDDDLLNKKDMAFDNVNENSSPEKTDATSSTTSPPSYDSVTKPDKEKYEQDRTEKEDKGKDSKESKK
Sequence of hNav1.7 (Q07699 19-218 partner): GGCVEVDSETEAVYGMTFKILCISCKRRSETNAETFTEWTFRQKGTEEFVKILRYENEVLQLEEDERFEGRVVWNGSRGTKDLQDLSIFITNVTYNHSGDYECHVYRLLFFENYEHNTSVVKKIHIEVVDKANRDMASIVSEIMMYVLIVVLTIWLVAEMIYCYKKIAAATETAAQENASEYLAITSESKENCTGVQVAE
Conditions: not given
Compound `O=C(NS(=O)(=O)C1CC1)c1cc(C2CC2)c(CN2CC(Oc3cc(Cl)cc(Cl)c3)C2)cc1F` [Example 545, 5-cyclopropyl-N-(cyclopropylsulfonyl)-4-((3-(3,5-dichlorophenoxy)azetidin-1-yl)methyl)-2-fluorobenzamide, trifluoroacetic acid salt] displayed an IC50 of 3.4 nM.

Staying with this experiment, now noted: read-out: Ligand Binding Assay; 100 pM [3H]compound, membranes with hNav1.7 and β1 subunit, 18 h, room temperature.
For `COC[C@H](c1cccc(Cl)c1)N1CCC(COc2cc(F)c(C(=O)NS(C)(=O)=O)cc2C2CC2)CC1` (single isomer, unassigned) [Example 263], the IC50 is 20 nM. Still for that read-out and setting: in the case of `CC1(COc2cc(F)c(C(=O)NS(C)(=O)=O)cc2C2CC2)CCN(C(=O)c2cc(Cl)ccc2Cl)CC1` [Example 578, 5-cyclopropyl-4-((1-(2,5-dichlorobenzoyl)-4-methylpiperidin-4-yl)methoxy)-2-fluoro-N-(methylsulfonyl)benzamide] it was 180 nM. Same read-out and setting: in the case of `Cc1cc(C)cc(CN2CCC[C@@H](Oc3cc(F)c(C(=O)NS(C)(=O)=O)cc3C3CC3)C2)c1` [Example 436, (R)-5-cyclopropyl-4-((1-(3,5-dimethylbenzyl)piperidin-3-yl)oxy)-2-fluoro-N-(methylsulfonyl)benzamide, trifluoroacetic acid salt] it was 5.4 nM; in that of `CCS(=O)(=O)NC(=O)c1cc(C2CC2)c(OCC2CCN(C(C)(C)c3cc(Cl)cc(Cl)c3)CC2)cc1F` [Example 210, 5-Cyclopropyl-4-((1-(2-(3,5-dichlorophenyl)propan-2-yl)piperidin-4-yl)methoxy)-N-(ethylsulfonyl)-2-fluorobenzamide], 1.9 nM. As for `CS(=O)(=O)NC(=O)c1cc(C2CC2)c(OCC2CCN(C(=O)c3ccccc3C(F)(F)F)CC2)cc1F` [Example 255], the IC50 was determined as 1100 nM. On to `O=C(NS(=O)(=O)C1CC1)c1cc(C2CC2)c(CN2[C@@H]3CC[C@H]2CC(Oc2cc(C(F)(F)F)cc(Cl)c2F)C3)cc1F` (stereo partly drawn) [Example 470, 4-(((1R,3r,5S)-3-(3-chloro-2-fluoro-5-(trifluoromethyl)phenoxy)-8-azabicyclo[3.2.1]octan-8-yl)methyl)-5-cyclopropyl-N-(cyclopropylsulfonyl)-2-fluorobenzamide, trifluoroacetic acid salt], for which the IC50 is 3.8 nM. Consider `CS(=O)(=O)NC(=O)c1cc(C2CC2)c(OCC2CN([C@@H](c3ccccc3)c3ccccn3)C2)cc1F` [Example 118, (S)-5-Cyclopropyl-2-fluoro-N-(methylsulfonyl)-4-((1-(phenyl(pyridin-2-yl)methyl)azetidin-3-yl)methoxy)benzamide], for which the IC50 was determined as 417 nM.

In the case of `CC1(COc2cc(F)c(C(=O)NS(C)(=O)=O)cc2C2CC2)CCN(Cc2ccc(Cl)c(Cl)c2)CC1` [Example 575, 5-cyclopropyl-4-((1-(3,4-dichlorobenzyl)-4-methylpiperidin-4-yl)methoxy)-2-fluoro-N-(methylsulfonyl)benzamide], the IC50 is 4.5 nM.

With `CC(C)Nc1ccc(F)cc1CN1CCC(COc2cc(F)c(C(=O)NS(=O)(=O)C3CC3)cc2C2CC2)CC1` [Example 356, 5-cyclopropyl-N-(cyclopropylsulfonyl)-2-fluoro-4-((1-(5-fluoro-2-(isopropylamino)benzyl)piperidin-4-yl)methoxy)benzamide, trifluoroacetic acid salt], the IC50 turned out to be 5.8 nM.

Take `Cc1ccc(CN2CCC(COc3cc(F)c(C(=O)NS(C)(=O)=O)cc3C3CC3)CC2)cc1` [Example 93, 5-Cyclopropyl-2-fluoro-4-((1-(4-methylbenzyl)piperidin-4-yl)methoxy)-N-(methylsulfonyl)benzamide]: the IC50 came out at 173 nM. As for `COC[C@@H](c1cc(Cl)cc(Cl)c1)N1CCC(C)(COc2cc(F)c(C(=O)NS(C)(=O)=O)cc2C2CC2)CC1` (single isomer, unassigned) [Example 172], the IC50 came out at 3.9 nM. On the same count and under the same terms, in the case of `CC(c1cc(F)cc(F)c1)N1CCC(COc2cc(F)c(C(=O)NS(C)(=O)=O)cc2C2CC2)CC1` (stereo not shown) [Example 89, 5-Cyclopropyl-4-((1-(1-(3,5-difluorophenyl)ethyl)piperidin-4-yl)methoxy)-2-fluoro-N-(methylsulfonyl)benzamide] it was 22.3 nM; in that of `CC1(COc2cc(F)c(C(=O)NS(C)(=O)=O)cc2C2CC2)CCN(C(c2ccccc2)c2ccccc2)CC1` [Example 574, 4-((1-benzhydryl-4-methylpiperidin-4-yl)methoxy)-5-cyclopropyl-2-fluoro-N-(methylsulfonyl)benzamide], 2.9 nM. As to `CS(=O)(=O)NC(=O)c1cc(C2CC2)c(O[C@@H]2CCCN(Cc3ccc(C(F)(F)F)c(Cl)c3)C2)cc1F` [Example 433, (R)-4-((1-(3-chloro-4-(trifluoromethyl)benzyl)piperidin-3-yl)oxy)-5-cyclopropyl-2-fluoro-N-(methylsulfonyl)benzamide, trifluoroacetic acid salt], the IC50 is 6.2 nM. On the same count and under the same terms, in the case of `COc1ccc(CN2CCC[C@@H](Oc3cc(F)c(C(=O)NS(=O)(=O)C4CC4)cc3C3CC3)C2)cc1F` [Example 313, (R)-5-cyclopropyl-N-(cyclopropylsulfonyl)-2-fluoro-4-((1-(3-fluoro-4-methoxybenzyl)piperidin-3-yl)oxy)benzamide] it was 9.1 nM. On to `O=C(NS(=O)(=O)C1CC1)c1cc(C2CC2)c(OCC2CCN(S(=O)(=O)c3ccc(F)c(Cl)c3)CC2)cc1F` [Example 383, 4-((1-((3-chloro-4-fluorophenyl)sulfonyl)piperidin-4-yl)methoxy)-5-cyclopropyl-N-(cyclopropylsulfonyl)-2-fluorobenzamide], for which the IC50 came to 14.8 nM. `CS(=O)(=O)NC(=O)c1cc(C2CC2)c(OCC2CCN(C(c3ccc(F)c(Cl)c3)C(F)(F)F)CC2)cc1F` (stereo not shown) [Example 301, 4-((1-(1-(3-chloro-4-fluorophenyl)-2,2,2-trifluoroethyl)piperidin-4-yl)methoxy)-5-cyclopropyl-2-fluoro-N-(methylsulfonyl)benzamide]: the IC50 is 3 nM. Still for that read-out and setting: in the case of `CS(=O)(=O)NC(=O)c1cc(C2CC2)c(OCC2CCN(S(=O)(=O)c3ccc(Br)c(Cl)c3)CC2)cc1F` [Example 390, 4-((1-((4-bromo-3-chlorophenyl)sulfonyl)piperidin-4-yl)methoxy)-5-cyclopropyl-2-fluoro-N-(methylsulfonyl)benzamide] it was 18.5 nM; in that of `CC(c1cc(Cl)cc(Cl)c1F)N1CCC(COc2cc(F)c(C(=O)NS(C)(=O)=O)cc2C2CC2)CC1` (stereo in doubt) [Example 236, (R)-5-cyclopropyl-4-((1-(1-(3,5-dichloro-2-fluorophenyl)ethyl)piperidin-4-yl)methoxy)-2-fluoro-N-(methylsulfonyl)benzamide], 1.6 nM. On the same count and under the same terms, in the case of `O=C(NS(=O)(=O)N1CCC1)c1cc(C2CC2)c(O[C@H]2CCN(Cc3ccccc3)C2)cc1F` [Example 45, (S)—N-(azetidin-1-ylsulfonyl)-4-((1-benzylyprrolidin-3-yl)oxy)-5-cyclopropyl-2-fluorobenzamide] it was 4580 nM; in that of `O=C(NS(=O)(=O)N1CCC1)c1cc(C2CC2)c(OC[C@H]2CCCN(Cc3ccc(F)cc3Cl)C2)cc1F` [Example 339, (S)—N-(azetidin-1-ylsulfonyl)-4-((1-(2-chloro-4-fluorobenzyl)piperidin-3-yl)methoxy)-5-cyclopropyl-2-fluorobenzamide, trifluoroacetic acid salt], 16.5 nM. On to `CS(=O)(=O)NC(=O)c1cc(C2CC2)c(OCC2CCN(Cc3ccc(Br)c(Cl)c3)CC2)cc1F` [Example 587, 4-((1-(4-bromo-3-chlorobenzyl)piperidin-4-yl)methoxy)-5-cyclopropyl-2-fluoro-N-(methylsulfonyl)benzamide], for which the IC50 was determined as 5.1 nM.

Turning to `COC[C@@H](c1cc(Cl)cc(Cl)c1)N1CCC[C@@H](Oc2cc(F)c(C(=O)NS(C)(=O)=O)cc2C2CC2)C1` [Example 447, 5-cyclopropyl-4-(((R)-1-((R)-1-(3,5-dichlorophenyl)-2-methoxyethyl)piperidin-3-yl)oxy)-2-fluoro-N-(methylsulfonyl)benzamide], the IC50 came out at 6 nM. On to `CS(=O)(=O)NC(=O)c1cc(C2CC2)c(OCC2CCN(Cc3cc(C(F)(F)F)cc(C4CC4)n3)CC2)cc1F` [Example 306, 5-cyclopropyl-4-((1-((6-cyclopropyl-4-(trifluoromethyl)pyridin-2-yl)methyl)piperidin-4-yl)methoxy)-2-fluoro-N-(methylsulfonyl)benzamide], for which the IC50 amounted to 6 nM. As for `O=C(NS(=O)(=O)C1CC1)c1cc(C2CC2)c(OCC2CCN(S(=O)(=O)c3ccc(OC(F)(F)F)cc3)CC2)cc1F` [Example 379, 5-cyclopropyl-N-(cyclopropylsulfonyl)-2-fluoro-4-((1-((4-(trifluoromethoxy)phenyl)sulfonyl)piperidin-4-yl)methoxy)benzamide], the IC50 worked out at 17.2 nM. For `C[C@@H](c1ccc(Cl)cc1Cl)N1CCC(C)(COc2cc(F)c(C(=O)NS(C)(=O)=O)cc2C2CC2)CC1` [Example 280, (S)-5-cyclopropyl-4-((1-(1-(2,4-dichlorophenyl)ethyl)-4-methylpiperidin-4-yl)methoxy)-2-fluoro-N-(methylsulfonyl)benzamide], the IC50 was determined as 8.1 nM. The same measure, in the same setting: in the case of `CS(=O)(=O)NC(=O)c1cc(Cl)c(OCC2CN(C(c3ccccc3)c3ccccc3)C2)cc1F` [Example 59, 4-((1-benzhydrylazetidin-3-yl)methoxy)-5-chloro-2-fluoro-N-(methylsulfonyl)benzamide] it was 76 nM; in that of `C[C@@H](c1cc(Cl)cc(C(F)(F)F)c1)N1CCC(C)(COc2cc(F)c(C(=O)NS(C)(=O)=O)cc2C2CC2)CC1` (single isomer, unassigned) [Example 279], 4 nM. As to `CS(=O)(=O)NC(=O)c1cc(C2CC2)c(OCC2CN(S(=O)(=O)c3ccccc3)C2)cc1F` [Example 129, 5-Cyclopropyl-2-fluoro-N-(methylsulfonyl)-4-((1-(phenylsulfonyl)-azetidin-3-yl)methoxy)benzamide], the IC50 amounted to 1370 nM. `CS(=O)(=O)NC(=O)c1cc(C2CC2)c(OCC2CCN(Cc3ccccc3F)CC2)cc1F` [Example 127, 5-Cyclopropyl-2-fluoro-4-((1-(2-fluorobenzyl)piperidin-4-yl)methoxy)-N-(methylsulfonyl)benzamide]: the IC50 was 578 nM.
